Measurements: US20140322193A1, “Therapies for Disorders of the Cornea and Conjunctiva” (priority 2011, published 2014)
“Also recorded” adds a separate entry of the source.

What was measured:
CBA/J mice = experiment: Mouse BTX-B dry eye model, corneal fluorescein staining (corneal ulceration); format: in vivo; settings: for Corneal fluorescein staining, MEAN, DAY 7: 7 days after BTX-B injection; for Corneal fluorescein staining, MEAN, DAY 7 / Corneal fluorescein staining, MEAN, DAY 14: eye drops twice daily in Refresh Celluvisc (A-438079 20 μM, BBG 20 μM, oxATP 300 μM), grade 0 to 4 scale; for Corneal fluorescein staining, MEAN, DAY 14: 14 days after BTX-B injection; for Corneal fluorescein staining, MEAN, DAY 0: day 0, prior to BTX-B injection (baseline), grade on 0 to 4 scale of Table 2; for Effect on corneal fluorescein staining (in words): days 7 and 14, chosen dose, b.i.d. eye drops
mouse P2X7 receptor = target: T1, mouse P2X7 receptor (Mus musculus, UniProt Q9Z1M0); settings: British Journal of Pharmacology 2009 157:1203; cited from earlier work
T1 sequence (Q9Z1M0 1-595): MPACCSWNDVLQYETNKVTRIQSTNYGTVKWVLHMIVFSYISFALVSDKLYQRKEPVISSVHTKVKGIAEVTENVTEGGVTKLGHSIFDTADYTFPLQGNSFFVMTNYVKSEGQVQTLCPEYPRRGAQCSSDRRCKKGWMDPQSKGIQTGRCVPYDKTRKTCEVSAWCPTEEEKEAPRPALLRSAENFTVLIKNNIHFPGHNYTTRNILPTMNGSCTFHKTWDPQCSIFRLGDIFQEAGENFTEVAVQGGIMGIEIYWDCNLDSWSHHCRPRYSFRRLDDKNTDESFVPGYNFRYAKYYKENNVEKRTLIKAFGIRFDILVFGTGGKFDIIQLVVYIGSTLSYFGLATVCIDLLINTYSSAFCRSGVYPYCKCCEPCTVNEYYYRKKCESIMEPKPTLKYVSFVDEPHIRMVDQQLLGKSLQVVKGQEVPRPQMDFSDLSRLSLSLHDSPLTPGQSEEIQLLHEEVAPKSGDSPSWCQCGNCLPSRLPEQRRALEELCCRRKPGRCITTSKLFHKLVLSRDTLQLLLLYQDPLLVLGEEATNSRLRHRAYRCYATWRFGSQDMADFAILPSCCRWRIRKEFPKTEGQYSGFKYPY

[1] = Preservation of 1 μM BBG ophthalmic composition in containers at 60° C. for 2 days; format: physicochemical; settings: 1 μM BBG in BSS, PET, polypropylene, polyethylene and glass containers
Protocol: BSS Sterile Irrigating Solution is obtained from Alcon Laboratories, Ft. Worth, Tex. BBG is obtained from Sigma Aldrich, St. Louis, Mo. With moderate stirring in a homomixer, 856 mg of BBG is added to 1 liter of BSS at room temperature. The mixture is then stirred until the BBG is completely in solution. This solution is a 1 mM stock solution. One ml of the stock solution is then added to one liter of BSS to yield the ophthalmic composition, which is 1 μM BBG in BSS. The ophthalmic composition is filtered through a membrane filter (0.45 μm pore diameter, Millipore), filled in a 15 mL polyethylene terephthalate eye drop container, a polypropylene container, a polyethylene container, and a glass container and preserved at 60° C. for 2 days. The amount of BBG from each container is measured before and after preservation.

| Compound | Corneal fluorescein staining, MEAN, DAY 7 (CBA/J mice) | Corneal fluorescein staining, MEAN, DAY 14 (CBA/J mice) | Corneal fluorescein staining, MEAN, DAY 0 (CBA/J mice) | Effect on corneal fluorescein staining (in words) (CBA/J mice) | IC50 (mouse P2X7 receptor) [nM] | Degradation of active ingredient after preservation [1] |
| --- | --- | --- | --- | --- | --- | --- |
| Clc1cccc(-c2nnnn2Cc2cccnc2)c1Cl [A-438079] | 1.70 | 2.70 | 0.00 | did not attenuate fluorescein staining |  |  |
| Nc1ncnc2c1ncn2[C@@H](C=O)O[C@@H](C=O)COP(=O)(O)OP(=O)(O)OP(=O)(O)O [oxATP, periodate oxidized ATP] | 0.00 | 0.00 | 0.00 | completely prevented the fluorescein staining; also recorded: remarkably effective in preventing pathology |  |  |
| COc1ccc(CC(=O)NC(N=C(NC#N)Nc2cccc3ncccc23)C(C)(C)C)cc1OC (centres unmarked) [A-740003] |  |  |  |  | ~1000 |  |
| CCOc1ccc(Nc2ccc(/C(=C3C=C/C(=[N+](/CC)Cc4cccc(S(=O)(=O)[O-])c4)C=C/3C)c3ccc(N(CC)Cc4cccc(S(=O)(=O)[O-])c4)cc3C)cc2)cc1.[Na+] [BBG, Coomassie Brilliant Blue G] | 1.50 | 2.00 | 0.00 | did not attenuate fluorescein staining |  | little degradation |
